The values that follow come from publication PMC5380659, “Unique charge-dependent constraint on collagen recognition by integrin α10β1” (Matrix Biology, 2017).

Test [1] deals with collagen-binding integrins. Set-up: method as in 3 sources, ref [7], [8] = [7]; PMID 10778855; doi:10.1016/S0092-8674(00)80622-4; 7 Emsley J. Knight C.G. Farndale R.W. Barnes M.J. Liddington R.C. Structural basis of collagen recognition by integrin alpha2beta1 Cell 101 1 2000 47 56 10778855 10.1016/S0092-8674(00)80622-4 || [8]; PMID 16326707; doi:10.1074/jbc.M509818200; 8 Raynal N. Hamaia S.W. Siljander P.R. Maddox B. Peachey A.R. Fernandez R. Foley L.J. Slatter D.A. Jarvis G.E. Farndale R.W. Use of synthetic peptides to locate novel integrin alpha2beta1-binding moti ||| ref [8], [10] = [8]; PMID 16326707; doi:10.1074/jbc.M509818200; 8 Raynal N. Hamaia S.W. Siljander P.R. Maddox B. Peachey A.R. Fernandez R. Foley L.J. Slatter D.A. Jarvis G.E. Farndale R.W. Use of synthetic peptides to locate novel integrin alpha2beta1-binding moti || [10]; PMID 16043429; doi:10.1074/jbc.M502431200; 10 Kim J.K. Xu Y. Xu X. Keene D.R. Gurusiddappa S. Liang X. Wary K.K. Hook M. A novel binding site in collagen type III for the integrins, alpha 1beta 1 and alpha 2beta 1 J. Biol. Chem. 280 2005 32512 ||| ref [11] = [11]; PMID 10986291; doi:10.1074/jbc.M007668200; 11 Xu Y. Gurusiddappa S. Rich R.L. Owens R.T. Keene D.R. Mayne R. Hook A. Hook M. Multiple binding sites in collagen type I for the integrins α1β1 and α2β1 J. Biol. Chem. 275 2000 38981 38989 10986291. To be noted: ref [11]; cited from earlier work. From the text: Many related motifs have now been identified using the Collagen Toolkits developed in this laboratory for the purpose. These are libraries of overlapping peptides of 27 amino acids of collagen primary sequence (guest sequence), flanked ...

The test system of test [2] is α10β1. Briefly: Overall recognition by α10β1 (I domain and C2C12-α10β1 cells, summary). The settings on record: abstract and discussion; I domain and/or C2C12-α10β1 cells. The method, then: (§1) I domain adhesion was determined colorimetrically, as described, here termed solid phase binding assay (SPBA). Peptides were coated at 10 μg/ml for 1 h at 22 °C on Immulon-2 HB 96-well plates (Thermo Life Sciences, Basingstoke, UK), and blocked for 1 h with 200 μl of TBS containing 50 mg/ml bovine serum albumin. Wells were washed four times with 200 μl of the adhesion buffer (TBS with 1 mg/ml bovine serum albumin) before adding 100 μl of adhesion buffer containing 10 μg/ml of recombinant GST I domains in the presence of either 2 mM MgCl2 or EDTA for 1 h at room temperature. Wells were washed five times with 200 μl of adhesion buffer containing MgCl2 or EDTA, before adding 100 μl of adhesion buffer containing the anti-GST-HRP conjugate at 1:10,000 dilution for 1 h at room temperature. After washing, colour was developed using an ImmunoPure TMB Substrate Kit (Pierce) according to the manufacturer's instructions.
(§2) The mouse myoblast cell line, C2C12, (control and transfectants, C2C12-α1β1, C2C12-α2β1, C2C12-α10β1 or C2C12-α11β1) was maintained in RPMI medium containing 10% fetal bovine serum, 2 mM glutamine, 100 IU/ml penicillin, 100 μg/ml streptomycin, and 2.5 μg/ml amphotericin. Cells were harvested by centrifugation, washed, and suspended at 0.5 × 10^6/ml in Tris-buffered saline supplemented with 5.5 mM glucose and either 2 mM EDTA or 2 mM MgCl2. SPBA was performed as follows: 100 μl of the cell suspension was added to peptide-coated wells [42] at 20 °C for 60 min. Cell adhesion was determined colorimetrically after lysis, using a lactate dehydrogenase (LDH)-based cell detection kit (Roche Diagnostics) according to the supplier's instructions.
(§3) To quantitate C2C12-α10β1 binding to collagen peptides, we used the impedance-based xCELLigence system (Acea) that allows label-free, dynamic monitoring of cell adhesion in real-time. The assay system expresses the adhesion-dependent rise in well impedance in units of cell index (CI), defined as (Rn − Rb) / 15; where Rn is the electrical impedance of each cell-containing well and Rb is the background impedance of the well with medium alone

Test [3] concerns human recombinant GST-α10 I domain. Briefly: Solid-phase binding assay (SPBA) of wild-type α10 I domain. The settings on record: short THPs, 2 mM Mg^2 +, 1 h, Fig. 4A. As for the experimental part:
The α10 I domain was applied to the collagen II and III Toolkits in the presence or absence of Mg^2 +, and was detected using anti-GST, as described in Experimental: data are shown in Fig. 1. The background response is indicated by wells coated with the control peptide, GPP10 (corresponding to the host sequence), or BSA.
as §1

The test system of test [4] is C2C12-α10β1 cells. Briefly: LDH-based SPBA of C2C12-α10β1 cell adhesion. The settings on record: short THPs, 2 mM Mg^2 +, 1 h, Fig. 4B. Also on record: species or system mouse. As for the experimental part:
The mouse myoblast cell line, C2C12-α10β1 clone, expresses α10β1 as its sole collagen-binding integrin [16]. To investigate the binding of α10β1 to collagen in a cellular and whole integrin context, therefore, the adhesion of C2C12-α10β1 cells to Toolkits II and III was performed using two different approaches. First, SPBA was used, with lactate dehydrogenase to report the presence of adherent cells, after lysis, as described in Experimental. […] C2C12-α10B1 cells generally bound more prominently to those weaker peptides that supported just-observable binding of free I-domain. This may reflect avidity of the receptor-populated cell surface for the peptide-coated wells, or perhaps up-regulation of integrin affinity following receptor engagement. It is also possible that some cell binding reflects specific indirect interactions. For example, fibronectin, available either by intrinsic expression or from the serum supplement, binds well to II-44, and can also bind integrin αVβ3 [21].
Fig. 2 Binding of α10β1-transfected C2C12 cells to Collagen Toolkits. 96-well plates were coated with peptides as for Fig. 1, then C2C12-α10β1 cells (5 × 10^4 per well) were added and incubated for 1 h in the presence of either 2 mM MgCl2 or 2 mM EDTA as above. A: binding to Toolkit II. B: binding to Toolkit III.
as §2

Test [5] relates to C2C12-α10β1 cells. Kind of test: xCELLigence real-time adhesion of C2C12-α10β1 cells. The class given is cell-based, mouse. To be noted: 2.5 × 10^4 cells/well, 2 mM Mg^2 +, over 1 h, Fig. 3A. As for the experimental part: Fig. 3 Binding of α10β1-transfected C2C12 cells to collagens and selected Toolkit peptides. Peptides or collagens were coated on ePlates as described, then cells were added in the presence of 2 mM Mg^2 + or EDTA, and Cell Index value was collected over 1 h. […] B: time courses are shown of adhesion to selected Toolkit peptides or GPP-10.
as §3
Briefly, C2C12 cells were seeded at 2.5 × 10^4 cells/well in an E-plate (Roche Applied Science) pre-coated with peptides as for SPBA, and CI was measured for up to 2 h.

For test [6], the system named is α10β1. Set-up: method as in not given. To be noted: ref not given; cited from earlier work. From the text: In the setting of cartilage, collagen III, although enriched in the pericellular environment, is much less abundant than collagen II [22], and its expression increases with age or with th ...
Test [7] concerns integrin α1β1. Also on record: method as in 3 sources, ref [4]; PMID 19693543; doi:10.1007/s00441-009-0834-6; 4 Barczyk M. Carracedo S. Gullberg D. Integrins Cell Tissue Res. 339 1 2010 269 280 19693543 10.1007/s00441-009-0834-6 PMC2784866 ||| ref [12] = [12]; PMID 22654115; doi:10.1074/jbc.M112.353144; 12 Hamaia S.W. Pugh N. Raynal N. Nemoz B. Stone R. Gullberg D. Bihan D. Farndale R.W. Mapping of potent and specific binding motifs, GLOGEN and GVOGEA, for integrin alpha1beta1 using collagen toolkits ||| ref not given. To be noted: ref [4]; cited from earlier work. From the text: The collagen-binding integrin family is complete, with four established members, α1β1, α2β1, α10β1 and α11β1. These are highly-conserved, heterodimeric receptors with an important structural feature in common, the presence of an I (inserted) domain which contains the metal ion-dependent adhesion site (MIDAS). The MIDAS is a constellation of electronegative residues at the distal surface of this 200-residue domain that, in the resting, non-ligated state, can co-ordinate a Mg^2 + ion. […] Many related motifs have now been identified using the Collagen Toolkits developed in this laboratory for the purpose. These are libraries of overlapping peptides of 27 amino acids of collagen primary sequence (guest sequence), flanked ... || Why would collagen II differ in this respect?

Entries after “also recorded” stand apart in the source; their conditions may differ.

“GASGER [integrin motif in collagens I, XXIII]”: in test [1], the “Ligand of collagen-binding integrins, weak motifs” value is on record as “weak ligands”.
For the substance “GLOGER [short triple-helical peptide containing GLOGER]”, the “Recognition by α10β1, summary” value in test [2] is recorded as “binds α10β1 better than GFOGER, second only to GLOGEN; also recorded: α10β1-positive”. The “Binding of α10 I domain to short triple-helical peptides” value in test [3] is reported as “less well”. In addition, the “Adhesion of C2C12-α10β1 cells to short triple-helical peptides” value in test [4] is on record as “bound strongly”.
As to “GLSGER [short triple-helical peptide containing GLSGER]”, the “Recognition by α10β1, summary” value in test [2] is “α10β1-positive”. For the same substance, the “Adhesion of C2C12-α10β1 cells to short triple-helical peptides” value in test [4] is on record as “bound strongly”. Besides, in test [1], the “Ligand of collagen-binding integrins, weak motifs” value was “weak ligands”.
In the case of collagen II: intact collagen II, the “Cell adhesion to collagens (Cell Index, endpoint)” value in test [5] is given as “bound quite well”. Moreover, in test [6], the “Reported binding of α10β1 to collagens” value is “binds”.
Take collagen IV: intact collagen IV: in test [5], the “Cell adhesion to collagens (Cell Index, endpoint)” value is on record as “better”. For the same substance, the “Preferred ligand of α1β1” value in test [7] is “preferred ligand”. The “Reported binding of α10β1 to collagens” value in test [6] was “better ligand”.
